Consider eleven compounds from US20050171215A1, “Germicidal compositions containing halogenated phthalaldehyes, and methods of using such compositions for disinfection or sterilization” (Ethicon, Inc., priority 2004, published 2005).

Where two headings read alike, the source gives them in different places.

Series [1] concerns Mycobacterium terrae bacteria. The series is described as follows: bacterial suspension test. The series is classed as cell-based. The note with it: for Germicidal Efficacy: summary Table 14. As to the method: In Examples 1 to 3, which follow, several germicidal solutions containing either the 4-fluoro-, 4-chloro-, or 4-bromo-phthalaldehyde compound were tested to determine their effectiveness in killing at least 1×10^6/mL of Mycobacterium terrae bacteria using a bacterial suspension test. The bacterial suspension test that was employed is described in Section VII.
The solutions were prepared by adding the appropriate amounts of the germicidal compounds to an aqueous solution. Unless otherwise mentioned all concentrations reported herein are expressed in (w/v)%. The pH of the solution was not adjusted. The tests were conducted at a temperature of about 20° C. (room temperature). The results are presented in terms of log reductions/mL. It is understood that these examples, as well as the other examples herein, are to be construed as merely illustrative, and not limiting.
In this test method, 9 mL of the germicide to be tested is placed in a tube, put into a water bath and allowed to come to the desired temperature. One mL of the test organism, including at least 7 logs/mL of Mycobacterium terrae bacteria, is added to the 9 mL of the germicide to be tested. […] It will be appreciated by those skilled in the art that other concentrations may be utilized by proper dilution and accounting.
At appropriate time intervals, 1 mL aliquots of the germicide-cell suspension were removed and added directly into 9 mL of a 1% glycine solution (neutralizer) and mixed thoroughly to neutralize the germicide in the transferred suspension. The glycine solution was prepared from solid glycine, which is available from VWR Scientific Products, among others. The above-identified 10 mL neutralized solution was then poured through a membrane filter having an average pore size of 0.45 micrometers. The filter was then rinsed twice with at least 150 mL of the 1% glycine solution per rinse. The filter was then placed on an agar plate and incubated for twenty-one days at 37° C. In the above procedure, if dilution was needed, then the 1 mL germicidal-cell suspension was diluted in 99 mL of a phosphate buffer before addition to the 9 mL of the 1% glycine solution. The phosphate buffer was DiLu-LoK™ Butterfields Phosphate Buffer, available from Hardy Diagnostics, of Santa Maria, Calif.
The surviving colonies are then counted. The data is plotted as S/So vs. time. So is the initial count of the bacteria in the above 10 mL solution which is at least 10^6 bacteria/mL, and S is the surviving bacteria from the above filter on the agar plate. The results of the experiments were presented in terms of log reductions. Log reduction is the difference between log(So) and log(S). As one example, if log(So)=6.2, and if there were 100 survivors, then the log(S)=2, and the log reduction was reported as 4.2.

The next series is described as follows: solubility in water. The series is classed as physicochemical.

Turning to `O=Cc1ccccc1C(O)S(=O)(=O)[O-].[Na+]` (stereo not shown) [(2-formyl-phenyl)-hydroxy-methane sulfonic acid, sodium salt], the “Log Reductions/mL” value in series [1] (9.1%, 20° C., 5 min) is on record as “Confluent”.

With `O=Cc1ccccc1C=O` [OPA, phthalaldehyde, reference compound], the log reduction at 0.14 % in series [1] (Mycolicibacter terrae, 5 min, 0.14%, 20° C., 5 min, read-out: Log Reductions/mL) is 4.8. Moreover, in series [1] (Mycolicibacter terrae, 5 min, 0.28%, 20° C., 5 min, read-out: Log Reductions/mL), the log reduction at 0.28 % was found to be 5.5. Further, the “Germicidal Efficacy” value in series [1] is recorded as “Good”. The solubility in water entry in “solubility in water” is “about 5 % by weight”.

On to `O=Cc1ccc(C=O)cc1` [TPA, terephthalaldehyde, reference compound], for which the “Log Reductions/mL” value in series [1] (0.2%, dissolved in 20% isopropanol, 20° C., 5 min) is on record as “Confluent”. Moreover, the “Germicidal Efficacy” value in series [1] is “Poor”.

With `O=Cc1ccc(F)cc1C=O` [4-fluoro-phthalaldehyde], the “Log Reductions/mL” value in series [1] (0.25%, 20° C., 60 minutes exposure) was “Total Kill”. For the same compound, the “time to achieve a total kill of the bacteria” value in series [1] (about 0.25%, 20° C.) was in the range of 30 to 60 min.

On to `O=CC(c1ccccc1)C(O)S(=O)(=O)[O-].[Na+]` (stereo not shown) [1-hydroxy-3-oxo-2-phenyl-propane-1-sulfonic acid, sodium salt], for which the “Log Reductions/mL” value in series [1] (0.6%, 20° C., 60 min) is given as “Total Kill”. The log reduction at 0.6 % in series [1] (Mycolicibacter terrae, 5 min, 0.6%, 20° C., 5 min, read-out: Log Reductions/mL) is 2.1; in series [1] (Mycolicibacter terrae, 20 min, 0.6%, 20° C., 20 min, read-out: Log Reductions/mL), 2.5; in series [1] (Mycolicibacter terrae, 25 min, 0.6%, 20° C., 25 min, read-out: Log Reductions/mL), 2.9.

In the case of 4-pyridinyl-propanedial, the “Log Reductions/mL” value in series [1] (Saturated (˜2.3% w/v), 5 min, 20° C.) was found to be 4.0 log reductions/mL.

Regarding `O=Cc1ccc(Cl)cc1C=O` [4-chloro-phthalaldehyde], the “Log Reductions/mL” value in series [1] (2.7 w/v % (in 20% isopropanol), 20° C., 5 min) was “Total Kill”. In series [1] (in five minutes, 20° C.), the “concentration effective to achieve a total kill of all bacteria” value was 0.2 to 2.7%.

Regarding `O=Cc1cccc(C=O)c1` [IPA, isophthalaldehyde, reference compound], the “Log Reductions/mL” value is reported as “Confluent” in series [1] (0.3%, dissolved in 20% isopropanol, 20° C., 5 min (Table 11)) and “Confluent” in series [1] (0.3%, dissolved in 20% isopropanol, 20° C., 5 min (Table 15)). Further, the “Germicidal Efficacy” value in series [1] is “Poor”.

With `O=CC(C=O)c1ccccc1` [phenyl-propanedial], the “Log Reductions/mL” value was “Total Kill” in series [1] (0.4%, 20° C., 60 min); “Total Kill” in series [1] (0.44%, 20° C., 60 min); “Total Kill” in series [1] (0.66%, 20° C., 15 min); “Total Kill” in series [1] (0.7%, 20° C., 15 min); 4.5 log reductions/mL in series [1] ((˜1%), 20° C., 5 min). In addition, the log reduction at 0.66 % in series [1] (Mycolicibacter terrae, 5 min, 0.66%, 20° C., 5 min, read-out: Log Reductions/mL) is less than 2.5; in series [1] (Mycolicibacter terrae, 10 min, 0.66%, 20° C., 10 min, read-out: Log Reductions/mL), 2.5. Besides, the log reduction at 1 % in series [1] (Mycolicibacter terrae, 5 min, ˜1%, 20° C., 5 min (Table 15), read-out: Log Reductions/mL) turned out to be 4.5. Also, the log reduction at 0.7 % in series [1] (Mycolicibacter terrae, 10 min, 0.7%, 20° C., 10 min, read-out: Log Reductions/mL) was determined as 2.5. In series [1] (Mycolicibacter terrae, 0.5 h, 0.3%, 20° C., 30 min, read-out: Log Reductions/mL), the log reduction at 0.3 % stood at 2.1. Further, the log reduction at 0.33 % in series [1] (Mycolicibacter terrae, 0.5 h, 0.33%, 20° C., 30 min, read-out: Log Reductions/mL) turned out to be 2.1. The log reduction at 0.4 % in series [1] (Mycolicibacter terrae, 0.5 h, 0.4%, 20° C., 30 min, read-out: Log Reductions/mL) was found to be 2.5. For the same compound, the log reduction at 0.44 % in series [1] (Mycolicibacter terrae, 0.5 h, 0.44%, 20° C., 30 min, read-out: Log Reductions/mL) came to 2.5. In series [1] (Mycolicibacter terrae, 1 h, 0.2%, 20° C., 60 min, read-out: Log Reductions/mL), the log reduction at 0.2 % was 2.1. Moreover, the log reduction at 0.22 % in series [1] (Mycolicibacter terrae, 1 h, 0.22%, 20° C., 60 min, read-out: Log Reductions/mL) stood at 2.1. Besides, the “concentration effective to achieve a total kill” value in series [1] (within 15 minutes, 20° C.) is listed as 0.4 to 0.7%. In addition, the “concentration effective to achieve a total kill of the bacteria” value in series [1] (within 60 minutes, 20° C.) lay within 0.3 to 0.4%. The solubility in water result in “solubility in water” is reported as “about 1%”.

On to `O=Cc1ccc(Br)cc1C=O` [4-bromo-phthalaldehyde], for which the “Log Reductions/mL” value in series [1] (0.1%, 20° C., 30 minutes exposure) is listed as “Total Kill”. Also, the “time to achieve a total kill of the bacteria” value in series [1] (about 0.1%, 20° C.) is 10 to 30 min.

Take `O=CC(C=O)c1cccc(C(=O)O)c1[N+](=O)[O-]` [3-(1-formyl-2-oxoethyl)-2-nitro-benzoic acid]: in series [1] (Mycolicibacter terrae, 5 min, Saturated (˜2.1% w/v), 5 min, 20° C., read-out: Log Reductions/mL), the log reduction at 2.1 % was determined as 4.
